Assay results taken from ChEMBL document CHEMBL5154806, “Synthesis and Profiling of Highly Selective Inhibitors of Methyltransferase DOT1L Based on Carbocyclic C-Nucleosides” (J Med Chem, 2022).
The source made the active and inactive calls. The rule behind the calls is not given here.

Assays:
[1] = molecular target: T1, Histone-lysine N-methyltransferase, H3 lysine-79 specific (Homo sapiens, UniProt Q8TEK3); assay: Inhibition of human DOT1L by hotspot PMT activity assay
Target sequence in this assay (Q8TEK3 whole entry): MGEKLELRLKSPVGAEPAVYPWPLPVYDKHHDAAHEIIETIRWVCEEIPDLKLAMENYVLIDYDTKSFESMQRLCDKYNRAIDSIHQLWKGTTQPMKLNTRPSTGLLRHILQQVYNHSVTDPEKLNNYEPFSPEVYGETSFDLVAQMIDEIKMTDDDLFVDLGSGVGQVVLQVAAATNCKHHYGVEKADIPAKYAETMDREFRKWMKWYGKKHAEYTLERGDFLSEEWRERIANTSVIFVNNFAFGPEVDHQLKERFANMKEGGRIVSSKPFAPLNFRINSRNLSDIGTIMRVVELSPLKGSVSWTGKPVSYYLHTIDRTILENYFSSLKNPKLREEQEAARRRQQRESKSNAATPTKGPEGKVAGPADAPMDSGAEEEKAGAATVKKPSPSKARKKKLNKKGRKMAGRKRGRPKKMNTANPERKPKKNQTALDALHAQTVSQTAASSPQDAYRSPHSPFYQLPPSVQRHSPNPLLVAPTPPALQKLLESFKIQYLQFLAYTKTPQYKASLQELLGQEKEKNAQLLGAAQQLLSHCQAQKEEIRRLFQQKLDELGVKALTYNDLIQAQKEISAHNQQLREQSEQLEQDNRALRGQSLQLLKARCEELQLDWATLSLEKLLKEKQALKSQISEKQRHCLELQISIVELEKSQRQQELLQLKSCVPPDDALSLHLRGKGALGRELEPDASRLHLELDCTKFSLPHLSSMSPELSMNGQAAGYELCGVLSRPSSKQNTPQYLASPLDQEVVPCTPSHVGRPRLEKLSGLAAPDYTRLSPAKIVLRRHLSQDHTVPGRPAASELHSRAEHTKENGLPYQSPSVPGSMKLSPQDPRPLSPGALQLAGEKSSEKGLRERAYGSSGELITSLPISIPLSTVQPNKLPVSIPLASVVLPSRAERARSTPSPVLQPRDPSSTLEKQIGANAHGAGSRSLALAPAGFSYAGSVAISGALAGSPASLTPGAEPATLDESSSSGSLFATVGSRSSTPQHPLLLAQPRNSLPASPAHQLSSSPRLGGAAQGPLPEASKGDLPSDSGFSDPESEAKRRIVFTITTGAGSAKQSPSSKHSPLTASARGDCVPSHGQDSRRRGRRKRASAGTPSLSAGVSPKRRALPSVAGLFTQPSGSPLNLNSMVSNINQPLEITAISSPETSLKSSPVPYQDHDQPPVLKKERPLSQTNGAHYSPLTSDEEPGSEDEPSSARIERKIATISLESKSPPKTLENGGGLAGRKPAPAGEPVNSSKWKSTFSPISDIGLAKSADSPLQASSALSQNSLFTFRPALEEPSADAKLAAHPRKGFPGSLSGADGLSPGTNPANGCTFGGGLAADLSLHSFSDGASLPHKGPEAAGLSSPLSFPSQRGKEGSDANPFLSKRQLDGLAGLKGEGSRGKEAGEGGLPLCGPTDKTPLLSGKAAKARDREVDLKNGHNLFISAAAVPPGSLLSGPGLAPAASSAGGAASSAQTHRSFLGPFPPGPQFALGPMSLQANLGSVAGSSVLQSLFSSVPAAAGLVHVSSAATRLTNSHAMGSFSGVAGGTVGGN

[2] = AUC (0 to t) in fasted BALB/c mouse at 20 mg/kg, iv administered upto 600 mins by HPLC-MS/MS analysis; type: ADME, organism-based; design: dose 20 mg/kg, time < 600 min, route iv; conditions: in vivo
[3] = AUC (0 to infinity) in fasted BALB/c mouse at 20 mg/kg, po administered upto 600 mins by HPLC-MS/MS analysis; type: ADME, organism-based; design: dose 20 mg/kg, time < 600 min, route po; conditions: in vivo
[4] = Volume of distribution in fasted BALB/c mouse at 20 mg/kg, iv administered upto 600 mins by HPLC-MS/MS analysis; type: ADME, organism-based; conditions: in vivo
[5] = Elimination rate constant in fasted BALB/c mouse at 20 mg/kg, iv administered upto 600 mins by HPLC-MS/MS analysis; type: ADME, organism-based; conditions: in vivo
[6] = Half life in fasted BALB/c mouse at 20 mg/kg, iv administered upto 600 mins by HPLC-MS/MS analysis; type: ADME, organism-based; conditions: in vivo
[7] = Elimination rate constant in fasted BALB/c mouse at 20 mg/kg, po administered upto 600 mins by HPLC-MS/MS analysis; type: ADME, organism-based; conditions: in vivo
[8] = Cmax in fasted BALB/c mouse at 20 mg/kg, iv administered upto 600 mins by HPLC-MS/MS analysis; type: ADME, organism-based; design: time < 600 min, dose 20 mg/kg, route iv; conditions: in vivo
[9] = Tmax in fasted BALB/c mouse at 20 mg/kg, po administered upto 600 mins by HPLC-MS/MS analysis; type: ADME, organism-based; conditions: in vivo
[10] = Tmax in fasted BALB/c mouse at 20 mg/kg, iv administered upto 600 mins by HPLC-MS/MS analysis; type: ADME, organism-based; conditions: in vivo
[11] = Half life in fasted BALB/c mouse at 20 mg/kg, po administered upto 600 mins by HPLC-MS/MS analysis; type: ADME, organism-based; conditions: in vivo
[12] = Cmax in fasted BALB/c mouse at 20 mg/kg, po administered upto 600 mins by HPLC-MS/MS analysis; type: ADME, organism-based; design: time < 600 min, dose 20 mg/kg, route po; conditions: in vivo
[13] = Bioavailability in fasted BALB/c mouse at 20 mg/kg, iv administered upto 600 mins by HPLC-MS/MS analysis; type: ADME, organism-based; conditions: in vivo
[14] = AUC (0 to t) in fasted BALB/c mouse at 20 mg/kg, po administered upto 600 mins by HPLC-MS/MS analysis; type: ADME, organism-based; design: dose 20 mg/kg, time < 600 min, route po; conditions: in vivo
[15] = AUC (0 to infinity) in fasted BALB/c mouse at 20 mg/kg, iv administered upto 600 mins by HPLC-MS/MS analysis; type: ADME, organism-based; design: dose 20 mg/kg, time < 600 min, route iv; conditions: in vivo
[16] = Clearance in fasted BALB/c mouse at 20 mg/kg, iv administered upto 600 mins by HPLC-MS/MS analysis; type: ADME, organism-based; conditions: in vivo
[17] = AUC (0 to t) in fasted BALB/c mouse at 5 mg/kg, iv administered upto 600 mins by HPLC-MS/MS analysis; type: ADME, organism-based; design: time < 600 min, dose 5 mg/kg, route iv; conditions: in vivo
[18] = molecular target: T1, Histone-lysine N-methyltransferase, H3 lysine-79 specific; assay: Inhibition of DOT1L in human MOLM-13 cells assessed as decrease in H3K79 methylation at 1 to 10 uM using histone H3 as substrate incubated for 5 days by immunoblotting assay; type: cell-based; conditions: dose 1-10 µM, time 5.0 day, DDE = dose-dependent effect
Target sequence in this assay (Q8TEK3 whole entry, looked up): as the sequence (Q8TEK3 whole entry) above

[19] = Half life in fasted BALB/c mouse at 5 mg/kg, iv administered upto 600 mins by HPLC-MS/MS analysis; type: ADME, organism-based; conditions: in vivo, iv, 5 mg/kg, 10 h
[20] = molecular target: T1, Histone-lysine N-methyltransferase, H3 lysine-79 specific; assay: Inhibition of DOT1L in human MOLM-13 cells assessed as decrease in H3K79 methylation at 1 to 10 uM using histone H3 as substrate incubated for 3 days by immunoblotting assay; type: cell-based; conditions: dose 1-10 µM, time 3.0 day, DDE = dose-dependent effect
Target sequence in this assay (Q8TEK3 whole entry, looked up): as the sequence (Q8TEK3 whole entry) above

OCI-AML-3 [21] = assay: Cytotoxicity against human OCI-AML-3 cells assessed as reduction of cell viability at 1 to 40 uM incubated for 5 to 15 days by WST-1 assay; type: functional, cell-based; conditions: dose 1-40 µM, time 5-15 day
[22] = Tmax in fasted BALB/c mouse at 5 mg/kg, iv administered upto 600 mins by HPLC-MS/MS analysis; type: ADME, organism-based; conditions: in vivo
[23] = Acute toxicity in BALB/c mouse assessed as death at 10 to 20 mg/kg,iv; type: organism-based; conditions: in vivo, dose 10-20 mg/kg
[24] = Acute toxicity in BALB/c mouse at 10 to 20 mg/kg,iv; type: organism-based; conditions: in vivo, dose 10-20 mg/kg
[25] = molecular target: T1, Histone-lysine N-methyltransferase, H3 lysine-79 specific; assay: Inhibition of DOT1L in human OCI-AML5 cells assessed as decrease in H3K79 methylation at 1 to 10 uM using histone H3 as substrate incubated for 5 days by immunoblotting assay; type: cell-based; conditions: dose 1-10 µM, time 5.0 day, DDE = dose-dependent effect
Target sequence in this assay (Q8TEK3 whole entry, looked up): as the sequence (Q8TEK3 whole entry) above

[26] = Clearance in fasted BALB/c mouse at 5 mg/kg, iv administered upto 600 mins by HPLC-MS/MS analysis; type: ADME, organism-based; conditions: in vivo
MOLM-13 [27] = assay: Cytotoxicity against human MOLM-13 cells assessed as metabolic activity at 1 to 40 uM incubated for 5 to 15 days by WST-1 assay; type: functional, cell-based; conditions: dose 1-40 µM, time 5-15 day
MOLM-13 [28] = assay: Cytotoxicity against human MOLM-13 cells assessed as reduction of cell viability at 1 to 40 uM incubated for 5 to 15 days by DiOC6/ propidium staining based flow cytometry analysis; type: functional; conditions: dose 1-40 µM, time 5-15 day
[29] = AUC (0 to infinity) in fasted BALB/c mouse at 5 mg/kg, iv administered upto 600 mins by HPLC-MS/MS analysis; type: ADME, organism-based; design: dose 5 mg/kg, time < 600 min, route iv; conditions: in vivo
[30] = Elimination rate constant in fasted BALB/c mouse at 5 mg/kg, iv administered upto 600 mins by HPLC-MS/MS analysis; type: ADME, organism-based; conditions: in vivo, iv, 5 mg/kg, 10 h
[31] = Acute toxicity in BALB/c mouse assessed as mild tremor at 5 mg/kg,iv measured after 6 to 7 mins; type: organism-based; conditions: in vivo, time 6-7 min
[32] = Volume of distribution in fasted BALB/c mouse at 5 mg/kg, iv administered upto 600 mins by HPLC-MS/MS analysis; type: ADME, organism-based; conditions: in vivo
[33] = molecular target: T1, Histone-lysine N-methyltransferase, H3 lysine-79 specific; assay: Inhibition of DOT1L in human SU-DHL-4 cells assessed as decrease in H3K79 methylation at 1 to 10 uM using histone H3 as substrate incubated for 5 days by immunoblotting assay; type: cell-based; conditions: dose 1-10 µM, time 5.0 day, DDE = dose-dependent effect
Target sequence in this assay (Q8TEK3 whole entry, looked up): as the sequence (Q8TEK3 whole entry) above

[34] = Cmax in fasted BALB/c mouse at 5 mg/kg, iv administered upto 600 mins by HPLC-MS/MS analysis; type: ADME, organism-based; design: time < 600 min, dose 5 mg/kg, route iv; conditions: in vivo
OCI-AML-3 [35] = assay: Cytotoxicity against human OCI-AML-3 cells assessed as reduction of cell viability at 1 to 40 uM incubated for 5 to 15 days by DiOC6/ propidium staining based flow cytometry analysis; type: functional; conditions: dose 1-40 µM, time 5-15 day
[36] = molecular target: T1, Histone-lysine N-methyltransferase, H3 lysine-79 specific; assay: Inhibition of DOT1L in human SU-DHL-4 cells assessed as decrease in H3K79 methylation at 1 to 10 uM using histone H3 as substrate incubated for 3 days by immunoblotting assay; type: cell-based; conditions: dose 1-10 µM, time 3.0 day, DDE = dose-dependent effect
Target sequence in this assay (Q8TEK3 whole entry, looked up): as the sequence (Q8TEK3 whole entry) above

[37] = Acute toxicity in BALB/c mouse assessed as respiratory failure at 5 mg/kg,iv measured after 6 to 7 mins; type: organism-based; conditions: in vivo, time 6-7 min
[38] = molecular target: T1, Histone-lysine N-methyltransferase, H3 lysine-79 specific; assay: Inhibition of DOT1L in human OCI-AML5 cells assessed as decrease in H3K79 methylation at 1 to 10 uM using histone H3 as substrate incubated for 3 days by immunoblotting assay; type: cell-based; conditions: dose 1-10 µM, time 3.0 day, DDE = dose-dependent effect
Target sequence in this assay (Q8TEK3 whole entry, looked up): as the sequence (Q8TEK3 whole entry) above

[39] = molecular target: T1, Histone-lysine N-methyltransferase, H3 lysine-79 specific; assay: Binding affinity to human DOT1L assessed as binding free energy difference

CC(C)N(CCCNC(=O)NC12CC3CC(CC(C3)C1)C2)C[C@H]1C[C@@H](c2ccc3c(N)ncnn23)[C@H](O)[C@@H]1O
IC50 [1]: > 10000 nM

CN(CCCNC(=O)Nc1ccc(C(C)(C)C)cc1)C[C@H]1C[C@@H](c2ccc3c(N)ncnn23)[C@H](O)[C@@H]1O (stereo in doubt; (-)-25)
AUC(0-t) at 10 h [2]: 3020 ng·h/mL
AUC(0-inf) [3]: 8.53 ng·h/mL
Vd [4]: 18.4 L/kg
k el at 10 h [5]: 9.82e-05 s⁻¹
half-life [6]: 118 min
k el at 10 h [7]: 0.0017 s⁻¹
Cmax [8]: 8320 ng/mL
Tmax [9]: 5 min
Tmax [10]: 5 min
half-life [11]: 6.78 min
Cmax [12]: 36.4 ng/mL
IC50 [1]: 19 nM
bioavailability [13]: 0.3%
AUC(0-t) at 10 h [14]: 8.07 ng·h/mL
AUC(0-inf) [15]: 3080 ng·h/mL
clearance [16]: 108 mL/min/kg

CC(C)N(C[C@H]1O[C@@H](n2cnc3c(N)ncnc32)[C@H](O)[C@@H]1O)[C@H]1C[C@@H](CCc2nc3cc(C(C)(C)C)ccc3[nH]2)C1 [PINOMETOSTAT]
AUC(0-t) at 10 h [17]: 4830 ng·h/mL
Activity [18]: Dde
t1/2 [19]: 43.2 min
Activity [20]: Dde
Activity (OCI-AML-3 [21]): Active
Tmax [22]: 5 min
Activity [23]: Toxic
Activity [24]: Toxic
Activity [25]: Dde
clearance [26]: 17.1 mL/min/kg
Activity (MOLM-13 [27]): Active
Activity (MOLM-13 [28]): Active
Tmax [9]: 5 min
AUC(0-inf) [29]: 4870 ng·h/mL
Kel [30]: 0.00161 min⁻¹
Activity [31]: Toxic
Vd [32]: 1.07 L/kg
Activity [33]: Dde
Cmax [12]: 15.9 ng/mL
Cmax [34]: 13900 ng/mL
Activity (OCI-AML-3 [35]): Active
Activity [36]: Dde
Activity [37]: Toxic
Activity [38]: Dde
AUC(0-t) at 10 h [14]: 0.662 ng·h/mL

CN(CCCNC(=O)Nc1ccccc1)C[C@H]1C[C@@](O)(c2ccc3c(N)ncnn23)[C@H](O)[C@@H]1O
deltaG [39]: 14 kJ/mol

CN(CCCNC(=O)Nc1ccc(C(C)(C)C)cc1)C[C@H]1C[C@@H](c2ccc3c(N)ncnn23)[C@H](O)[C@@H]1O (stereo in doubt; (+)-25)
deltaG [39]: -1 kJ/mol

CN(CCCNC(=O)Nc1ccccc1)C[C@H]1C[C@@H](c2cnn3c(N)ccnc23)[C@H](O)[C@@H]1O
deltaG [39]: 11 kJ/mol

CN(CCCNC(=O)Nc1ccc(C(C)(C)C)cc1)C[C@H]1C[C@@H](c2cnn3c(N)ccnc23)[C@H](O)[C@@H]1O
IC50 [1]: > 10000 nM

CC(C)NC[C@H]1C[C@@H](c2ccc3c(N)ncnn23)[C@H](O)[C@@H]1O
AUC(0-t) at 10 h [2]: 14200 ng·h/mL
AUC(0-inf) [3]: 1300 ng·h/mL
Vd [4]: 3.88 L/kg
k el at 10 h [5]: 0.0001 s⁻¹
half-life [6]: 115 min
k el at 10 h [7]: 0.000257 s⁻¹
Cmax [8]: 40800 ng/mL
Tmax [9]: 120 min
Tmax [10]: 5 min
half-life [11]: 44.9 min
Cmax [12]: 561 ng/mL
bioavailability [13]: 9%
AUC(0-t) at 10 h [14]: 1200 ng·h/mL
AUC(0-inf) [15]: 14200 ng·h/mL
clearance [16]: 23.3 mL/min/kg

CC(C)N(C[C@H]1C[C@@H](c2ccc3c(N)ncnn23)[C@H](O)[C@@H]1O)[C@H]1C[C@H](CCc2nc3cc(C(C)(C)C)ccc3[nH]2)C1 (racemic)
IC50 [1]: 13.8 nM
